Experimental data as given in PubChem BioAssay AID2060513 (Molecular Pharmacology Branch, DTP, NCI, 2025).

System: 299254-011-R-J1-PDC complex spheroids viability
Test: Anticancer human tumor 299254-011-R-J1-PDC patient-derived melanoma cell line growth inhibition [GQUAD]
Conditions: for IC50: curve of first compound; for viability, T/C: stronger effect = lower value
Summary of the method: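 Multi-cell-type spheroids of tumor cells with HUVEC and mesenchymal stem cells, treated with drug combinations. Concentrations descend in half-log steps from near clinical Cmax, or from 10 microM where Cmax is unknown; viability read-out.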

[1] = second compound 0.0316 µM, first compound 0.0316 µM
[2] = second compound 0.0316 µM, first compound 0.1 µM
[3] = second compound 0.0316 µM, first compound 0.316 µM
[4] = second compound 0.0316 µM, first compound 1 µM
[5] = second compound 0.0316 µM, first compound 3.16 µM
[6] = second compound 0.0316 µM, first compound 10 µM
[7] = second compound 0.1 µM, first compound 0.0316 µM
[8] = second compound 0.1 µM, first compound 0.1 µM
[9] = second compound 0.1 µM, first compound 0.316 µM
[10] = second compound 0.1 µM, first compound 1 µM
[11] = second compound 0.1 µM, first compound 3.16 µM
[12] = second compound 0.1 µM, first compound 10 µM
[13] = second compound 0.316 µM, first compound 0.0316 µM
[14] = second compound 0.316 µM, first compound 0.1 µM
[15] = second compound 0.316 µM, first compound 0.316 µM
[16] = second compound 0.316 µM, first compound 1 µM
[17] = second compound 0.316 µM, first compound 3.16 µM
[18] = second compound 0.316 µM, first compound 10 µM
[19] = second compound 1 µM, first compound 0.0316 µM
[20] = second compound 1 µM, first compound 0.1 µM
[21] = second compound 1 µM, first compound 0.316 µM
[22] = second compound 1 µM, first compound 1 µM
[23] = second compound 1 µM, first compound 3.16 µM
[24] = second compound 1 µM, first compound 10 µM
[25] = second compound 3.16 µM, first compound 0.0316 µM
[26] = second compound 3.16 µM, first compound 0.1 µM
[27] = second compound 3.16 µM, first compound 0.316 µM
[28] = second compound 3.16 µM, first compound 1 µM
[29] = second compound 3.16 µM, first compound 3.16 µM
[30] = second compound 3.16 µM, first compound 10 µM
[31] = second compound 10 µM, first compound 0.0316 µM
[32] = second compound 10 µM, first compound 0.1 µM
[33] = second compound 10 µM, first compound 0.316 µM
[34] = second compound 10 µM, first compound 1 µM
[35] = second compound 10 µM, first compound 3.16 µM
[36] = second compound 10 µM, first compound 10 µM
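Also: spheroids exposed to the agents for seven days before readout.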
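For viability, T/C in this document: percent viability relative to DMSO vehicle control wells = 100%.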

Work on `COc1ncnc(C2CC2)c1-c1ncc2cnn(Cc3ccc(-c4nc(C(F)(F)F)cn4C(C)C)cc3)c2n1` + Cc1[nH]c2ccc(F)cc2c1-c1nc2c3cccnc3c3ncccc3c2[nH]1 yielded an IC50 (second compound 0.0316 µM) greater than 10 µM, an IC50 (second compound 0.1 µM) greater than 10 µM and an IC50 (second compound 0.316 µM) greater than 10 µM. For the same compound, the IC50 (second compound 1 µM) was greater than 10 µM, the IC50 (second compound 3.16 µM) was greater than 10 µM and the IC50 (second compound 10 µM) was greater than 10 µM. It also gave a viability, T/C [1] of 106%, a viability, T/C [2] of 98.9% and a viability, T/C [3] of 101%. It also gave a viability, T/C [4] of 100%, a viability, T/C [5] of 107% and a viability, T/C [6] of 100%. For the same compound, the viability, T/C [7] was 120%, the viability, T/C [8] was 96.1% and the viability, T/C [9] was 110%. For the same compound, the viability, T/C [10] was 104%, the viability, T/C [11] was 111% and the viability, T/C [12] was 83.5%. For the same compound, the viability, T/C [13] was 105%, the viability, T/C [14] was 107% and the viability, T/C [15] was 98.7%. For the same compound, the viability, T/C [16] was 92%, the viability, T/C [17] was 92.9% and the viability, T/C [18] was 84.6%. For the same compound, the viability, T/C [19] was 129%, the viability, T/C [20] was 107% and the viability, T/C [21] was 102%. For the same compound, the viability, T/C [22] was 94.2%, the viability, T/C [23] was 103% and the viability, T/C [24] was 112%. It also gave a viability, T/C [25] of 104%, a viability, T/C [26] of 113% and a viability, T/C [27] of 108%. For the same compound, the viability, T/C [28] was 88.6%, the viability, T/C [29] was 99.8% and the viability, T/C [30] was 106%. The viability, T/C [31] was 91%, the viability, T/C [32] was 100% and the viability, T/C [33] was 108%. It also gave a viability, T/C [34] of 114%, a viability, T/C [35] of 106% and a viability, T/C [36] of 81.8%.
`CC(C)(O)C1CCC(Nc2ccc3ncc(-c4cccc(C(F)(F)F)c4)n3n2)CC1` (centres undefined) + Cc1cnc(CNC(=O)c2c(=O)c3ccc(N4CCCN(C)CC4)nc3n3c2sc2ccccc23)cn1 was tested, and the IC50 (second compound 0.0316 µM) was greater than 10 µM, the IC50 (second compound 0.1 µM) was greater than 10 µM and the IC50 (second compound 0.316 µM) was greater than 10 µM. It also gave an IC50 (second compound 1 µM) of 4.52 µM, an IC50 (second compound 3.16 µM) of 1.96 µM and an IC50 (second compound 10 µM) of less than 0.0316 µM. For the same compound, the viability, T/C [1] was 98.5%, the viability, T/C [2] was 114% and the viability, T/C [3] was 97.5%. The viability, T/C [4] was 90.7%, the viability, T/C [5] was 54.5% and the viability, T/C [6] was 100%. The viability, T/C [7] was 89.3%, the viability, T/C [8] was 101% and the viability, T/C [9] was 113%. For the same compound, the viability, T/C [10] was 98.6%, the viability, T/C [11] was 63.7% and the viability, T/C [12] was 110%. The viability, T/C [13] was 90.1%, the viability, T/C [14] was 100% and the viability, T/C [15] was 88.4%. The viability, T/C [16] was 98.2%, the viability, T/C [17] was 60% and the viability, T/C [18] was 84%. The viability, T/C [19] was 81.7%, the viability, T/C [20] was 112% and the viability, T/C [21] was 96.7%. It also gave a viability, T/C [22] of 74.7%, a viability, T/C [23] of 55.8% and a viability, T/C [24] of 42.3%. The viability, T/C [25] was 76.7%, the viability, T/C [26] was 85.9% and the viability, T/C [27] was 86.4%. For the same compound, the viability, T/C [28] was 76.8%, the viability, T/C [29] was 24.1% and the viability, T/C [30] was 37.6%. For the same compound, the viability, T/C [31] was 45.7%, the viability, T/C [32] was 18% and the viability, T/C [33] was 17.3%. It also gave a viability, T/C [34] of 0.33%, a viability, T/C [35] of 0.29% and a viability, T/C [36] of 0.26%.
